Holding throughout (experiment): NCI-60 cell line screen, 48 h
Experiment [1] deals with KM12.
Experiment [2] has as its system NCI/ADR-RES.
Experiment [3] deals with 786-0.
Experiment [4] deals with NCI-H460.
The test system of experiment [5] is TK-10.
Experiment [6] relates to NCI-H522.
In experiment [7] the test system is HL-60.
Experiment [8] has as its system OVCAR-5.
Experiment [9] relates to SF-539.
Experiment [10] concerns UACC-62.
For experiment [11], the system named is NCI-H226.
Experiment [12] concerns LOX IMVI.
Experiment [13] has as its system MDA-MB-435.
For experiment [14], the system named is K562.
Experiment [15] relates to CCRF-CEM.

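Grown in 96-well plates, cells were treated for 48 hours with each compound at five concentrations. Insufficient inhibition: endpoint recorded as highest concentration tested. The concentration for 50% growth inhibition is given as GI50.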 Calls of active or inactive are those of the source. No stated cut-off is given here; in the data, active = GI50 up to about 1.1 µM and inactive = higher.

Take `Cc1c(C)c(C)c(-n2c(=O)n(C)c(=O)n2-n2c(=O)n(C)c(=O)n2-c2c(C)c(C)c(C)c(C)c2C)c(C)c1C`: the GI50 in [1] is > 100 µM (inactive); in experiment [2] it was 61.2 µM (inactive); in [3] it was > 100 µM (inactive); in experiment [4], > 100 µM (inactive); in experiment [5] it was > 100 µM (inactive); in [6], 44.2 µM (inactive). The GI50 in experiment [7] was 12.1 µM (inactive); in [8], > 100 µM (inactive); in experiment [9] it was > 100 µM (inactive); in experiment [10], > 100 µM (inactive); in experiment [11] it was 37.8 µM (inactive); in [12], 92.5 µM (inactive). The GI50 in experiment [13] and in [14] was > 100 µM (inactive) each time.

`Cc1nc2ccc(F)cc2c(Cl)c1CCCl`: the GI50 is 18.6 µM (inactive) in [15]; 28.1 µM (inactive) in experiment [1]; 43 µM (inactive) in experiment [2]; 34.1 µM (inactive) in experiment [3]; 30.5 µM (inactive) in experiment [4]; 62.8 µM (inactive) in [5]. In addition, the GI50 was 31.5 µM (inactive) in [6]; 16.1 µM (inactive) in [7]; 67.3 µM (inactive) in [9]; 27.7 µM (inactive) in experiment [10]; 54.1 µM (inactive) in experiment [11]; 25.2 µM (inactive) in experiment [12]. Besides, the GI50 in experiment [13] was 26.9 µM (inactive); in [14] it was 25.8 µM (inactive).

For `CCN(CC)CCn1c2cc3c(cc2c(=O)c2cccnc21)OCO3`, the GI50 is 5.31 µM (inactive) in [15]; 5.94 µM (inactive) in experiment [1]; 4.93 µM (inactive) in [2]; 4.45 µM (inactive) in experiment [3]; 3.06 µM (inactive) in experiment [4]; 6.01 µM (inactive) in experiment [5]. The GI50 is 6.71 µM (inactive) in experiment [6]; 4.58 µM (inactive) in [7]; 4.44 µM (inactive) in experiment [8]; 4.92 µM (inactive) in [9]; 8.75 µM (inactive) in experiment [10]; 5.01 µM (inactive) in [11]. The GI50 in experiment [12] is 3.71 µM (inactive); in experiment [13], 4.71 µM (inactive).

Take `Cc1cccc(Nc2cnc(N)nc2N)c1`: the GI50 in experiment [15], in experiment [1], in [2], in experiment [3], in experiment [5] and in experiment [6] was > 100 µM (inactive) each time. Moreover, the GI50 in [7], in experiment [9], in experiment [10], in [11], in [12] and in experiment [13] was > 100 µM (inactive) each time. Further, the GI50 in experiment [14] was > 100 µM (inactive).

Regarding `O=C1N/N=C\Nc2ccc(cc2)S(=O)(=O)c2ccc(cc2)/N=C\NNC1=O`, the GI50 in experiment [1], in experiment [2], in experiment [3], in experiment [4], in [5] and in [6] was > 100 µM (inactive) in each case. Also, the GI50 was 10.1 µM (inactive) in experiment [7]; > 100 µM (inactive) in [8]; > 100 µM (inactive) in experiment [9]; > 100 µM (inactive) in experiment [10]; > 100 µM (inactive) in experiment [11]; > 100 µM (inactive) in experiment [12]. For the same molecule, the GI50 in experiment [13] and in experiment [14] was > 100 µM (inactive) throughout.

Take `C=CCO/N=C/c1cc(/N=C(/S)c2ccoc2C)ccc1Cl`: the GI50 in experiment [15] was 33.3 µM (inactive); in experiment [1] it was 7.93 µM (inactive); in [2], 7.26 µM (inactive); in experiment [3] it was 22.6 µM (inactive); in experiment [5], 16.6 µM (inactive); in experiment [6], 8.22 µM (inactive). Also, the GI50 is 20.6 µM (inactive) in [7]; 16.6 µM (inactive) in [8]; 25.4 µM (inactive) in experiment [9]; 14.4 µM (inactive) in experiment [10]; 15.9 µM (inactive) in [11]; 14.6 µM (inactive) in experiment [12]. Further, the GI50 in experiment [13] was 19.1 µM (inactive).

In the case of `O=S(=O)(O)c1ccc2cc(/N=N/c3c(O)ccc4ccccc34)ccc2c1`, the GI50 in [15] was > 100 µM (inactive); in [1], 97.5 µM (inactive); in experiment [2], > 100 µM (inactive); in [3] it was > 100 µM (inactive); in experiment [4], > 100 µM (inactive); in [5] it was > 100 µM (inactive). The GI50 in [6], in [7], in [8], in experiment [9], in [10] and in experiment [11] was > 100 µM (inactive) each time. The GI50 in [13] and in [14] was > 100 µM (inactive) in each case.

Turning to `CC(C)(C)OCC1NC(=O)[C@@H]2Cc3c([nH]c4ccccc34)C(C3CCCCC3)N2C1=O` (stereo not given in full), the GI50 in [1] was 17.8 µM (inactive); in experiment [2], 21.1 µM (inactive); in [3], 22.5 µM (inactive); in experiment [5], 24.3 µM (inactive); in experiment [6] it was 16.5 µM (inactive); in [7] it was 23 µM (inactive). For the same molecule, the GI50 in experiment [8] is 24.2 µM (inactive); in experiment [10] it was 14.9 µM (inactive); in experiment [11] it was 22 µM (inactive); in [12] it was 16.9 µM (inactive); in experiment [13] it was 16 µM (inactive); in [14], 27.3 µM (inactive).

In the case of `C=CCOC1OC(CO[Si](C)(C)C(C)(C)C)C(OCc2ccccc2)C(OCc2ccccc2)C1OCc1ccccc1` (stereo not given), the GI50 was > 100 µM (inactive) in [15]; > 100 µM (inactive) in experiment [1]; 36.6 µM (inactive) in experiment [2]; 10.5 µM (inactive) in [3]; 42 µM (inactive) in [4]; > 100 µM (inactive) in experiment [5]. The GI50 is 34 µM (inactive) in experiment [6]; > 100 µM (inactive) in experiment [7]; > 100 µM (inactive) in experiment [8]; 27.2 µM (inactive) in experiment [10]; > 100 µM (inactive) in [11]; 25.9 µM (inactive) in [12]. The GI50 in experiment [13] and in experiment [14] was > 100 µM (inactive) each time.

Consider `COc1ccc(C2CC(c3cc4c(C)c(C(=O)c5ccccc5)oc4cc3O)=Nc3ccccc3S2)cc1OC` (stereo not given), for which the GI50 in experiment [15] is 70.8 µM (inactive); in [2], > 58.1 µM (inactive); in [3], 47.6 µM (inactive); in experiment [4], > 100 µM (inactive); in experiment [5], > 77.1 µM (inactive); in experiment [6], 19.1 µM (inactive). Also, the GI50 in experiment [7] was 9.82 µM (inactive); in experiment [8] it was > 100 µM (inactive); in experiment [9] it was > 50 µM (inactive); in experiment [10], > 51.4 µM (inactive); in experiment [11], > 100 µM (inactive); in experiment [12], > 100 µM (inactive). In addition, the GI50 in [13] is 0.733 µM (active); in experiment [14] it was > 72.9 µM (inactive).

For `O=[As](O)(O)c1ccc(/N=N/c2ccc([As](=O)(O)O)cc2)cc1`, the GI50 in experiment [1], in [2], in experiment [3], in experiment [4], in [5] and in experiment [6] was > 100 µM (inactive) throughout. Moreover, the GI50 in [7], in [8], in experiment [10], in experiment [11], in [12] and in experiment [13] was > 100 µM (inactive) each time. Besides, the GI50 in experiment [14] was > 100 µM (inactive).

Turning to `CC1(C)CCCC2(C)C3=C(CCC12)C(=O)OC3` (stereo not given), the GI50 in experiment [15] was > 100 µM (inactive); in experiment [1] it was > 100 µM (inactive); in [2] it was 86.3 µM (inactive); in experiment [3] it was > 100 µM (inactive); in experiment [5], > 100 µM (inactive); in [6], > 100 µM (inactive). In addition, the GI50 in [7] was 17.6 µM (inactive); in experiment [8], > 100 µM (inactive); in experiment [9], > 100 µM (inactive); in [10], 93.5 µM (inactive); in experiment [11] it was > 100 µM (inactive); in experiment [12], > 100 µM (inactive). Besides, in experiment [13], the GI50 was > 100 µM (inactive).

With `OCCOCn1nncc1Cn1ncc2c(O)ncnc21`, the GI50 in experiment [1] was 32.6 µM (inactive); in [2], > 100 µM (inactive); in experiment [3], 52 µM (inactive); in experiment [4], 49.4 µM (inactive); in experiment [5], > 100 µM (inactive); in experiment [6] it was 60.8 µM (inactive). The GI50 in experiment [7] was 23.9 µM (inactive); in experiment [8], > 100 µM (inactive); in experiment [9], > 100 µM (inactive); in [10], > 100 µM (inactive); in experiment [11], > 100 µM (inactive); in experiment [12] it was 74.3 µM (inactive). For the same molecule, the values for the GI50 in [13] and in experiment [14] were 26.9 µM (inactive) and 43.6 µM (inactive), respectively.

`COc1ccc(C2NC(=S)Nc3c2c(=O)oc2c3ccc3ccccc32)cc1` (stereo not given): the GI50 was 46 µM (inactive) in experiment [15]; 58.3 µM (inactive) in experiment [1]; 81.5 µM (inactive) in experiment [2]; 80.7 µM (inactive) in experiment [3]; 96.6 µM (inactive) in experiment [4]; 99.3 µM (inactive) in [5]. Also, the GI50 in [6] was > 100 µM (inactive); in experiment [7], 92.3 µM (inactive); in experiment [8], > 100 µM (inactive); in [10], 45.7 µM (inactive); in experiment [11], 32.2 µM (inactive); in experiment [12], > 100 µM (inactive). Moreover, the GI50 is 86.3 µM (inactive) in experiment [13] and 56.9 µM (inactive) in experiment [14].

These data come from ChEMBL document CHEMBL1201862, “PubChem BioAssay data set” (2004).
